The values below come from publication PMC13358776, “Discovery of Two GSK3β Inhibitors from Sophora flavescens Ait. using Structure-based Virtual Screening and Bioactivity Evaluation” (Current Computer-Aided Drug Design, 2024).

For the test, the target named is T1, GSK3β (Homo sapiens, UniProt P49841).
T1 construct: gene GSK3B
Briefly: Kinase-Glo Plus luminescent enzymatic assay, […] ATP. The format is biochemical.

T1 sequence (P49841 whole entry): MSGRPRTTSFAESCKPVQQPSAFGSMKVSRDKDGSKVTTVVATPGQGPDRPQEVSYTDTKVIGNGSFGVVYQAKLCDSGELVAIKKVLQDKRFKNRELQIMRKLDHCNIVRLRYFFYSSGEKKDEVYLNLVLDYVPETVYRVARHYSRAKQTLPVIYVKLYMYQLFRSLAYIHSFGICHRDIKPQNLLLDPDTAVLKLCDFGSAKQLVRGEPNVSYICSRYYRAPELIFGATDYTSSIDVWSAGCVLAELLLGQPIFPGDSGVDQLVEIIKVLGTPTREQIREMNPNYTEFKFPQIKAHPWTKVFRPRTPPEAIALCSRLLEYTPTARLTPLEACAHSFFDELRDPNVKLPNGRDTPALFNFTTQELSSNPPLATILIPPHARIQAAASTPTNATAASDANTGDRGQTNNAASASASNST

Regarding kushenol F [MOL006617], the IC50 was 4.96 ± 1.29 µM.
